Measured values as given in ChEMBL document CHEMBL3826929, “Discovery and Preclinical Evaluation of BMS-711939, an Oxybenzylglycine Based PPARα Selective Agonist” (ACS Med Chem Lett, 2016).

Assays:
[1] = target: T1, Peroxisome proliferator-activated receptor gamma (Homo sapiens, UniProt P37231); assay: Agonist activity at Gal4-tagged human PPAR-gamma expressed in HEK cells by transactivation assay; assay type: cell-based, HEK293
T1 sequence (P37231 whole entry): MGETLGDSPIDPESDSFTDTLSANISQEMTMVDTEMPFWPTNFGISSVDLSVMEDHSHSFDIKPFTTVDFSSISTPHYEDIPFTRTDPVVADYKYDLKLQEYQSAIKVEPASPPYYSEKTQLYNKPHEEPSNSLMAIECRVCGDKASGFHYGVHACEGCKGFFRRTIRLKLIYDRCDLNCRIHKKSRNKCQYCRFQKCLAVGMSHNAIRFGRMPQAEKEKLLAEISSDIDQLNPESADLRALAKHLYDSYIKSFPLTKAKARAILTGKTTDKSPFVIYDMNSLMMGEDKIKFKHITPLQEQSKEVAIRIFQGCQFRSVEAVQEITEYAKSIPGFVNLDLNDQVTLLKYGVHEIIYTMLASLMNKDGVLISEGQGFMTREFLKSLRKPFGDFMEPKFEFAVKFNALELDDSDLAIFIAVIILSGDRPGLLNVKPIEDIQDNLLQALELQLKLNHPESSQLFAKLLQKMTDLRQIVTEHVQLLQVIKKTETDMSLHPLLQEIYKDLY

[2] = tested on: HEK293; assay: Selectivity ratio of EC50 for Gal4-tagged human PPAR-gamma expressed in HEK cells to EC50 for Gal4-tagged human PPAR-alpha expressed in HEK cells; assay type: cell-based
[3] = target: T2, Peroxisome proliferator-activated receptor alpha (Homo sapiens) (UniProt Q07869); assay: Intrinsic activity at PPAR-alpha (unknown origin) relative to fenofibric acid
T2 sequence (whole entry): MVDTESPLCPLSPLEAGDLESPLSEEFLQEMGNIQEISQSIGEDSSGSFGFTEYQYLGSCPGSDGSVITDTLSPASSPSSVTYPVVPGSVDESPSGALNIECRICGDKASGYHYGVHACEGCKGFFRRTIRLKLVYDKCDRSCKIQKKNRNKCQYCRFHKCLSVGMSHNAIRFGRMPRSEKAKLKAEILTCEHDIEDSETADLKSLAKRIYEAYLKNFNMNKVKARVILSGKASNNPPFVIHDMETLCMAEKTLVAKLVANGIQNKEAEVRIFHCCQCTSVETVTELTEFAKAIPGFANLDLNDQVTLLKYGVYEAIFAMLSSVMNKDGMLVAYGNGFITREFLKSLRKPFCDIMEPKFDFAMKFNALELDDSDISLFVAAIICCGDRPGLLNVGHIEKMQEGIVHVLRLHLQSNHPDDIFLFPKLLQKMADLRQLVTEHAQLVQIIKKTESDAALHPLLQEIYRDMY

[4] = target: T3, Peroxisome proliferator-activated receptor alpha (Homo sapiens, UniProt Q07869); assay: Agonist activity at Gal4-tagged human PPAR-alpha expressed in HEK cells by transactivation assay; assay type: cell-based, HEK293
T3 sequence (Q07869 whole entry): T2 sequence (whole entry)

[5] = target: T3, Peroxisome proliferator-activated receptor alpha; assay: Binding affinity to human GST-tagged PPAR-alpha LBD expressed in Escherichia coli BL21 (DE3) PlysS after 30 mins in presence of fluorescein ligand FLA-A by fluorescence polarization assay
[6] = target: T1, Peroxisome proliferator-activated receptor gamma; assay: Binding affinity to human GST-tagged PPAR-gamma LBD expressed in Escherichia coli BL21 after 30 mins in presence of fluorescein ligand FLA-A by fluorescence polarization assay
[7] = tested on: Mus musculus; assay: Increase in HDL cholesterol level in transgenic mouse expressing human ApoA1 at 100 mg/kg administered qd through oral gavage measured after 10 days relative to vehicle control; assay type: functional
[8] = tested on: Mus musculus; assay: Decrease in triglyceride level in transgenic mouse expressing human ApoA1 at 100 mg/kg administered qd through oral gavage measured after 10 days relative to vehicle control; assay type: functional; design: scale not given: the % may be the effect or the level left
[9] = tested on: Mus musculus; assay: Increase in ApoA1 level in transgenic mouse expressing human ApoA1 at 100 mg/kg administered qd through oral gavage measured after 10 days relative to vehicle-treated control; assay type: functional
[10] = tested on: Syrian golden hamster; assay: Decrease in liver cholesterol level in high fat-diet fed syrian golden hamster model of dyslipidemia at 1 mg/kg administered qd through oral gavage measured after 21 days by FPLC analysis relative to control; assay type: functional, Mesocricetus auratus; design: scale not given: the % may be the effect or the level left
[11] = tested on: Syrian golden hamster; assay: Decrease in plasma triglyceride level in high fat-diet fed syrian golden hamster model of dyslipidemia at 1 mg/kg administered qd through oral gavage measured after 21 days by FPLC analysis relative to control; assay type: functional, Mesocricetus auratus; design: scale not given: the % may be the effect or the level left
[12] = tested on: Syrian golden hamster; assay: Decrease in liver triglyceride level in high fat-diet fed syrian golden hamster model of dyslipidemia administered qd through oral gavage measured after 21 days by FPLC analysis; assay type: functional, organism-based; conditions: Mesocricetus auratus
[13] = tested on: Syrian golden hamster; assay: Decrease in plasma LDL cholesterol level in high fat-diet fed syrian golden hamster model of dyslipidemia administered qd through oral gavage measured after 21 days by FPLC analysis relative to control; assay type: functional, organism-based; conditions: Mesocricetus auratus
[14] = tested on: Syrian golden hamster; assay: Decrease in plasma triglyceride level in high fat-diet fed syrian golden hamster model of dyslipidemia at 3 mg/kg administered qd through oral gavage measured after 21 days by FPLC analysis relative to control; assay type: functional, Mesocricetus auratus; design: scale not given: the % may be the effect or the level left
[15] = tested on: Syrian golden hamster; assay: Increase in liver cholesterol level in high fat-diet fed syrian golden hamster model of dyslipidemia at 1 mg/kg administered qd through oral gavage measured after 21 days by FPLC analysis relative to control; assay type: functional, Mesocricetus auratus
[16] = tested on: Syrian golden hamster; assay: Decrease in liver triglyceride level in high fat-diet fed syrian golden hamster model of dyslipidemia at 10 mg/kg administered qd through oral gavage measured after 21 days by FPLC analysis relative to control; assay type: functional, Mesocricetus auratus; design: scale not given: the % may be the effect or the level left
[17] = tested on: Syrian golden hamster; assay: Decrease in plasma triglyceride level in high fat-diet fed syrian golden hamster model of dyslipidemia at 10 mg/kg administered qd through oral gavage measured after 21 days by FPLC analysis relative to control; assay type: functional, Mesocricetus auratus; design: scale not given: the % may be the effect or the level left
[18] = tested on: Syrian golden hamster; assay: Decrease in liver triglyceride level in high fat-diet fed syrian golden hamster model of dyslipidemia at 1 mg/kg administered qd through oral gavage measured after 21 days by FPLC analysis relative to control; assay type: functional, Mesocricetus auratus; design: scale not given: the % may be the effect or the level left
[19] = tested on: Syrian golden hamster; assay: Decrease in plasma LDL cholesterol level in high fat-diet fed syrian golden hamster model of dyslipidemia at 3 mg/kg administered qd through oral gavage measured after 21 days by FPLC analysis relative to control; assay type: functional, Mesocricetus auratus; design: scale not given: the % may be the effect or the level left
[20] = tested on: Syrian golden hamster; assay: Decrease in liver cholesterol level in high fat-diet fed syrian golden hamster model of dyslipidemia at 10 mg/kg administered qd through oral gavage measured after 21 days by FPLC analysis relative to control; assay type: functional, Mesocricetus auratus; design: scale not given: the % may be the effect or the level left
[21] = tested on: Syrian golden hamster; assay: Effect on plasma LDL cholesterol level in high fat-diet fed syrian golden hamster model of dyslipidemia at 1 mg/kg administered qd through oral gavage measured after 21 days by FPLC analysis (reference value: 91.7 +/- 8.1 mg/dl); assay type: functional, Mesocricetus auratus
[22] = tested on: Syrian golden hamster; assay: Decrease in plasma LDL cholesterol level in high fat-diet fed syrian golden hamster model of dyslipidemia at 10 mg/kg administered qd through oral gavage measured after 21 days by FPLC analysis relative to control; assay type: functional, Mesocricetus auratus; design: scale not given: the % may be the effect or the level left
[23] = tested on: Syrian golden hamster; assay: Decrease in liver cholesterol level in high fat-diet fed syrian golden hamster model of dyslipidemia at 3 mg/kg administered qd through oral gavage measured after 21 days by FPLC analysis relative to control; assay type: functional, Mesocricetus auratus; design: scale not given: the % may be the effect or the level left
[24] = tested on: Syrian golden hamster; assay: Decrease in liver triglyceride level in high fat-diet fed syrian golden hamster model of dyslipidemia at 3 mg/kg administered qd through oral gavage measured after 21 days by FPLC analysis relative to control; assay type: functional, Mesocricetus auratus; design: scale not given: the % may be the effect or the level left

Compound | EC50 [1] [µM] | Intrinsic activity [3] [%] | EC50 [4] [µM] | Ratio EC50 [2] | also measured
COc1ccc(OC(=O)N(CC(=O)O)Cc2cc(OCc3nc(-c4ccc(Cl)cc4)oc3C)ccc2F)cc1 | 1.09 | > 50 | 0.0068 | 160 | –
COC(=O)N(CC(=O)O)Cc1ccc(F)c(OCc2nc(-c3ccc(Cl)cc3)oc2C)c1 | 9.17 | > 50 | 0.094 | 98 | IC50 [5]: 1.56 µM; IC50 [6]: > 15 µM
CCCCOC(=O)N(CC(=O)O)Cc1cc(OCc2nc(-c3ccc(Cl)cc3)oc2C)ccc1F | 1.24 | > 50 | 0.0028 | 435 | –
Cc1oc(-c2ccc(Cl)cc2)nc1COc1ccc(F)c(CN(CC(=O)O)C(=O)OCCCF)c1 | 4.38 | > 50 | 0.0106 | 413 | –
COC(=O)N(CC(=O)O)Cc1cc(OCc2nc(-c3ccc(OC(F)(F)F)cc3)oc2C)ccc1F | 2.38 | > 50 | 0.0043 | 556 | –
CC(C)OC(=O)C(C)(C)Oc1ccc(C(=O)c2ccc(Cl)cc2)cc1 [FENOFIBRATE] | – | – | – | – | Activity [7]: 88%; Activity [8]: 32.5%; Activity [9]: 665%
Cc1oc(-c2ccc(Cl)cc2)nc1COc1ccc(F)c(CN(CC(=O)O)C(=O)OCC(C)C)c1 | 1.5 | > 50 | 0.0023 | 666 | –
COC(=O)N(CC(=O)O)Cc1cccc(OCc2nc(-c3ccc(Cl)cc3)oc2C)c1 | – | – | – | – | Activity [10]: -22%; Activity [11]: 40%; Activity [12]: Dose-dependent effect; Activity [13]: Dose-dependent effect; Activity [14]: 45%; Activity [15]: 22%; Activity [16]: 23%; Activity [17]: 77%; Activity [18]: 6%; Activity [19]: 46%; Activity [20]: 40.8%; Activity [21]: 89.3 mg/dL; Activity [22]: 60%; Activity [23]: 15.4%; Activity [24]: 17%
COC(=O)N(CC(=O)O)Cc1cc(OCc2nc(-c3ccccc3)oc2C)ccc1F | 8.61 | > 50 | 0.059 | 146 | –
Cc1ccc(OC(=O)N(CC(=O)O)Cc2cc(OCc3nc(-c4ccc(Cl)cc4)oc3C)ccc2F)cc1 | 1.26 | > 50 | 0.0056 | 224 | –
COC(=O)N(CC(=O)O)Cc1cc(OCc2nc(-c3ccc(S(C)(=O)=O)cc3)oc2C)ccc1F | > 25 | > 50 | > 2.5 | – | –
CCOC(=O)N(CC(=O)O)Cc1cc(OCc2nc(-c3ccc(Cl)cc3)oc2C)ccc1F | 4.27 | > 50 | 0.004 | 1080 | –

Continued by falling EC50 [1], values first:

EC50 [1] [µM] | Intrinsic activity [3] [%] | EC50 [4] [µM] | Compound | Ratio EC50 [2] | also measured
10 | > 50 | 0.0145 | COC(=O)N(CC(=O)O)Cc1cc(OCc2nc(-c3ccc(F)cc3)oc2C)ccc1F | 691 | –
2.86 | > 50 | 0.0086 | COC(=O)N(CC(=O)O)[C@@H](C)c1cccc(OCc2nc(-c3ccc(Cl)cc3)oc2C)c1 | 332 | IC50 [5]: 0.671 µM; IC50 [6]: > 15 µM
2.82 | > 50 | 0.018 | COC(=O)N(CC(=O)O)Cc1cc(F)cc(OCc2nc(-c3ccc(Cl)cc3)oc2C)c1 | 157 | IC50 [5]: 1.34 µM; IC50 [6]: > 15 µM
2.18 | > 50 | 0.0028 | COC(=O)N(CC(=O)O)Cc1cc(OCc2nc(-c3ccc(C)cc3)oc2C)ccc1F | 787 | –
2.06 | > 50 | 0.0036 | COC(=O)N(CC(=O)O)Cc1cc(OCc2nc(-c3ccc(C(F)(F)F)cc3)oc2C)ccc1F | 566 | –
2.01 | > 50 | 0.0034 | CCCOC(=O)N(CC(=O)O)Cc1cc(OCc2nc(-c3ccc(Cl)cc3)oc2C)ccc1F | 594 | –
0.414 | > 50 | 0.0027 | COC(=O)N(CC(=O)O)Cc1cc(OCc2nc(-c3ccc(C(C)(C)C)cc3)oc2C)ccc1F | 154 | –
